Where “and” joins values, the source holds several entries; their conditions need not be identical. Identical values can stand only once. Like-named read-outs stand apart in the source and are kept apart here.
Columns and labels:
[1] = system: monoclonal anti-digoxin antibody Dig 25-54 (IgG1); experiment: Affinity determination, [3H]digoxin dextran-coated charcoal RIA; type: binding, mouse (A/J); conditions: for Kd: 60 min, read-out: Affinity Constant K0 for digoxin (converted)
Method: (§1) Using the dextran coated charcoal binding method for separation of bound antibody from free H^3 -digoxin (Smith, J. Clin. Invest. 51:1583 (1972)), affinities (Ko) for monoclonal anti-digoxin antibodies were determined for antibody present in culture media and in preparations purified from ascites. Data were plotted according to a modified Sips equation (Nisonoff et al, J. Immunol. 80:417 (1958)), as described earlier herein. Typical of single component systems, a linear plot was obtained for all hybridomas analyzed. Correlation coefficients (r) varied from 0.989 to 0.999 for the monoclonal antibodies analyzed by this method. As anticipated, no significant difference was found for affinity constants determined for antibody present in culture media and in preparations following purification from ascites fluid (Table III).

[2] = target: monoclonal anti-digoxin antibody Dig 26-20 (IgG2a); experiment: as above; type: binding, mouse (A/J); conditions: 60 min, read-out: Affinity Constant K0 for digoxin (converted)
Method: as §1

[3] = target: monoclonal anti-digoxin antibody Dig 26-10 (IgG2a); experiment: as above; type: binding, mouse (A/J); conditions: for Kd: 60 min, read-out: Affinity Constant K0 for digoxin (converted)
Method: as §1

[4] = target: monoclonal anti-digoxin antibody Dig 26-40 (IgG2a); experiment: as above; type: binding, mouse (A/J); conditions: 60 min, read-out: Affinity Constant K0 for digoxin (converted)
Method: as §1

[5] = target: monoclonal anti-digoxin antibody Dig 26-30 (IgG2a); experiment: as above; type: binding, mouse (A/J); conditions: 60 min, read-out: Affinity Constant K0 for digoxin (converted)
Method: as §1

[6] = system: monoclonal anti-digoxin antibody Dig 35-20 (IgG1); experiment: as above; type: binding, mouse (A/J); conditions: for Kd: 60 min, read-out: Affinity Constant K0 for digoxin (converted)
Method: as §1

[7] = system: monoclonal anti-digoxin antibody Dig 26-40; experiment: Specificity determination, inhibition of [3H]digoxin binding in dextran charcoal RIA; parameters: species or system mouse (A/J); conditions: inhibition of antibody binding to [3H]digoxin
Method: (§2) The specificity of each antidigoxin antibody for related cardiac glycosides was assessed by the inhibition of binding of antibody in the dextran charcoal radioimmunoassay Smith (1972), supra. To a constant amount of H^3 -digoxin (1.5 ng) in 1 ml of buffer is added different amounts ([…]) of various cardiac glycosides: digoxin, digitoxin, digitoxigenin, digoxigenin, acetyl-strophanthidin, ouabain, deslanoside, and endogenous steroids such as chloresterol, cortisol, androsterone, 17-[beta]-estradiol, progesterone, and testosterone. After 5 minutes, a constant amount of anti-digoxin antibody was added and the assay was continued as described above. Comparison among different antidigoxin antibodies with respect to their fine specificity was made by determining the amount of cardiac glycoside required to achieve 50% inhibition relative to that required for cold digoxin.
(§3) Specificity of monoclonal antibody binding site for related cardiac glycosides was examined by means of hapten inhibition experiments in which the binding of monoclonal antibody to H^3 -digoxin was inhibited by cold digoxin and related cardiac glycosides.

[8] = system: monoclonal anti-digoxin antibody Dig 26-20; experiment: as above; parameters: species or system mouse (A/J); conditions: inhibition of antibody binding to [3H]digoxin
Method: as §2, §3

[9] = system: monoclonal anti-digoxin antibody Dig 35-20; experiment: as above; parameters: species or system mouse (A/J); conditions: inhibition of antibody binding to [3H]digoxin
Method: as §2, §3

[10] = system: monoclonal anti-digoxin antibody Dig 25-54; experiment: as above; parameters: species or system mouse (A/J); conditions: inhibition of antibody binding to [3H]digoxin
Method: as §2, §3

[11] = system: monoclonal anti-digoxin antibody Dig 26-10; experiment: as above; parameters: species or system mouse (A/J); conditions: inhibition of antibody binding to [3H]digoxin
Method: as §2, §3

[12] = system: monoclonal anti-digoxin antibody Dig 26-30; experiment: as above; parameters: species or system mouse (A/J); conditions: inhibition of antibody binding to [3H]digoxin
Method: as §2, §3

[13] = system: heterogeneous anti-digoxin antibody, Sheep Antisera; experiment: Affinity determination, [3H]digoxin dextran-coated charcoal RIA; type: binding; conditions: antibody source: serum; 60 min; read-out: Affinity Constant K0 for digoxin (converted)
Method: (§4) Antisera specific for digoxin was prepared in sheep as previously described by Curd et al, Proc. Nat. Acad. Sci. 65: 2401 (1971). High affinity antidigoxin sheep antisera was used in the clinical RIA for digoxin (described below).

[14] = system: Sheep Anti-Dig Serum (heterogeneous anti-digoxin antiserum); experiment: Specificity determination, inhibition of [3H]digoxin binding in dextran charcoal RIA; conditions: inhibition of antibody binding to [3H]digoxin
Method: as §4, §2, §3

[15] = system: heterogeneous anti-digoxin antibody, Pooled mouse antisera; experiment: Affinity determination, [3H]digoxin dextran-coated charcoal RIA; type: binding, mouse (A/J); conditions: antibody source: serum; 60 min; read-out: Affinity Constant K0 for digoxin (converted)
Method: (§5) A pool of mouse antidigoxin antibody was prepared from immune sera as follows. A/J mice immunized with Dig-HSA as described above, were bled from the tail on the 3rd or 4th week following intraperitoneal injection of antigen. Their sera were pooled and the antidigoxin antibodies were purified from the sera by affinity chromatography as described below. This antibody preparation was used as a standard antidigoxin reagent in the PVC-plate RIA (described below).

[16] = target: heterogeneous anti-digoxin antibody, Pooled mouse antibody; experiment: as above; type: binding, mouse (A/J); conditions: antibody source: serum; 60 min; read-out: Affinity Constant K0 for digoxin (converted)
Method: as §5

[17] = target: monoclonal anti-digoxin antibody Dig 26-10; experiment: Affinity constant by equilibrium dialysis; type: binding, mouse (A/J); conditions: confirmed by equilibrium dialysis
Source text: The affinity constant determined for Dig 26-10 (approximately 10^9 M^-1) was confirmed by equilibrium dialysis. […] The Ko determined for Dig 35-20 was also high, 1.3-3.4×10^9 M^-1.

[18] = target: Fab fragment of monoclonal anti-digoxin antibody Dig 26-10; experiment: Affinity determination, [3H]digoxin dextran-coated charcoal RIA; conditions: read-out: Affinity Constant K0 for digoxin, Fab of Dig 26-10, 60 min

For C[C@H]1O[C@@H](O[C@H]2[C@@H](O)C[C@H](O[C@H]3[C@@H](O)C[C@H](O[C@H]4CC[C@@]5(C)[C@H](CC[C@@H]6[C@@H]5C[C@@H](O)[C@]5(C)[C@@H](C7=CC(=O)OC7)CC[C@]65O)C4)O[C@@H]3C)O[C@@H]2C)C[C@H](O)[C@@H]1O [Digoxin], the Ko for digoxin [1] was 3.5 to 5.2 ×10^8 M^-1, the “apparent affinity Ko for digoxin” value [1] was < 10^8 M^-1 and the Kd ([1]; antibody purified from ascites) was 1920 pM. It also gave a Kd ([1]; antibody source: culture media) of 3850 pM, a Kd ([2]; antibody purified from ascites) of 294 pM and a Kd ([2]; antibody source: culture media) of 714 pM. For the same molecule, the Kd ([3]; antibody purified from ascites) was 213 pM, the Kd ([3]; antibody source: culture media) was 118 pM and the “Ko for digoxin, average value for the intact antibody” value ([3]; intact antibody) was < 5×10^9. For the same molecule, the Kd ([4]; antibody purified from ascites) was 385 pM, the Kd ([4]; antibody source: culture media) was 227 pM and the Kd ([5]; antibody purified from ascites) was 172 pM. For the same molecule, the Kd ([5]; antibody source: culture media) was 256 pM, the Ko for digoxin [6] was 1.3-3.4×10^9 M^-1 and the Kd ([6]; antibody purified from ascites) was 769 pM. The Kd ([6]; antibody source: culture media) was 526 pM, the “amount of inhibitor required to give 50% inhibition relative to the amount of digoxin which gave 50% inhibition” value [7] was 1.0 and the “amount of inhibitor required to give 50% inhibition relative to the amount of digoxin which gave 50% inhibition” value [8] was 1.0. The “amount of inhibitor required to give 50% inhibition relative to the amount of digoxin which gave 50% inhibition” value [9] was 1.0, the “amount of inhibitor required to give 50% inhibition relative to the amount of digoxin which gave 50% inhibition” value [10] was 1.0 and the “amount of inhibitor required to give 50% inhibition relative to the amount of digoxin which gave 50% inhibition” value [11] was 1.0. For the same molecule, the “amount of inhibitor required to give 50% inhibition relative to the amount of digoxin which gave 50% inhibition” value [12] was 1.0, the Kd [13] was 83.3 pM and the “amount of inhibitor required to give 50% inhibition relative to the amount of digoxin which gave 50% inhibition” value [14] was 1.0. For the same molecule, the Kd [15] was 323 pM, the Kd [16] was 286 pM and the Kd [17] was ~1000 pM. For the same molecule, the Kd [18] was 833 pM and 1000 pM.

— US4803167A, “Monoclonal antidigoxtin antibodies” (The General Hospital Corporation, priority 1982, dated 1989)
